According to patent publication US20040191171A1, “Method of detecting skin stimulation effect” (priority 2001, published 2004):
Values belong to the molecule of their own block, whether it stands above or below them.

Columns and labels:
Format in all cases: cell-based
VR1 receptor = target: T1, VR1 receptor (Homo sapiens, UniProt Q8NER1); assay: Intracellular calcium ion concentration in cultured epidermal keratinocytes (Fluo3-AM fluorescence), VR1 agonist/antagonist
T1 construct: epidermal keratinocytes were brought into contact with capsaicin, which is an agonist of a VR1 receptor; host or cells: cultured epidermal keratinocytes
T1 sequence (Q8NER1 whole entry): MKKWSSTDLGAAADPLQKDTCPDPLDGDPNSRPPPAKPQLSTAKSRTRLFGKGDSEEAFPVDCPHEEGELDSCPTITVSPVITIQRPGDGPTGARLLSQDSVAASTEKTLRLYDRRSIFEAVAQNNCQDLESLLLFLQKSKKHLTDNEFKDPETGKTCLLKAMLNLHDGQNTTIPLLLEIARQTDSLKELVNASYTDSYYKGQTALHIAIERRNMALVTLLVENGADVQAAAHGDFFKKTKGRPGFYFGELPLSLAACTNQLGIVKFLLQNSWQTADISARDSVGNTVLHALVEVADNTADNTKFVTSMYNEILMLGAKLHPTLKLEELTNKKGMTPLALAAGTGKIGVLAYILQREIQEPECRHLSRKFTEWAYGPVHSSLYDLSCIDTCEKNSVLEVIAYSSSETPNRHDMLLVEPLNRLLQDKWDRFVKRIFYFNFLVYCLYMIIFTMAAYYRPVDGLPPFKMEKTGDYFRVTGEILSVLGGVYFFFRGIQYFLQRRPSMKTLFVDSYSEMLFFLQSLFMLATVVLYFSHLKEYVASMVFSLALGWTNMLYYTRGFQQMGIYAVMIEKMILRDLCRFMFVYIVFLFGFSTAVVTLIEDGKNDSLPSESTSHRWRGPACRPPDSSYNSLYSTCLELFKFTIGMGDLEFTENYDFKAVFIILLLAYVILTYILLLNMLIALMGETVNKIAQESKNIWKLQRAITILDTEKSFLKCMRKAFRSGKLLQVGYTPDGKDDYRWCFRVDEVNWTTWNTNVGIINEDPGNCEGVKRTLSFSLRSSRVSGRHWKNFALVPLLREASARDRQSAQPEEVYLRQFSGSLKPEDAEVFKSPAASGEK
Method: (§1) (a) Commercially available epidermal keratinocytes (product of Kurabo Industries Ltd.) were subjected to culture by means of a customary method by use of a KGM medium which had been prepared through the following procedure: MCDB153IK (product of Kyokuto Pharmaceutical Industrial Co., Ltd.) (10.93 g), N-2-hydroxyethylpiperazine-N′-2-ethanesulphonic acid (HEPES) (6.7 g), NaHCO3 (1.2 g), insulin (5 mg), hydrocortisone (0.5 mg), transferrin (10 mg), phosphorylethanolamine (14.1 mg), EGF (10 μg), penicillin (100 mg), and kanamycin (60 mg) were dissolved in purified water (1 L); the pH of the resultant solution was adjusted to 7.4 by use of NaOH; the resultant solution was subjected to filter sterilization; and bovine pituitary gland extract (product of Kyokuto Pharmaceutical Industrial Co., Ltd.) (55 mg) was added to the resultant solution immediately before use of the solution. On the day before measurement of calcium ions was carried out, the thus-cultured epidermal keratinocytes were inoculated into a 96-well plate (2×10^5 cells/well). […]
(§2) The fluorescence intensity was measured over time by means of a customary method by use of a fluorescence microplate reader (485 nm, 538 nm).
(§3) The concentration of intracellular calcium ions in the cells was calculated by use of the following formula. […]

P2X receptor = assay: Intracellular calcium ion concentration in cultured epidermal keratinocytes (Fluo3-AM fluorescence), P2X agonist/inhibitor; settings: FIG. 2; for concentration of intracellular calcium ions in the keratinocytes: agonist solution (final concentration 10 μM) added to epidermal keratinocytes
Method: as §1, with “cells/well). On the following day, the aforementioned culture solution was removed from the well plate by use of a pipette such that the cells were not exfoliated from the wells. Subsequently, a balanced salt solution (BSS: an aqueous solution prepared by dissolving NaCl (150 mM), KCl (5 mM), CaCl2 (1.8 mM), NaH2PO4 (1.2 mM), MgCl2 (1.2 mM), D-glucose (10 mM), and HEPES (25 mM) in water, and adjusting the pH of the resultant solution to 7.4 by use of NaOH) and Fluo3-AM (product of Dainippon Pharmaceutical Co., Ltd.), which is a calcium-sensitive fluorescent dye, were added to the cultured epidermal keratinocytes (total amount of BSS and Fluo3-AM per well: […]), and incubation was carried out at 37° C. for 60 minutes, to thereby introduce the fluorescent dye into the cultured epidermal keratinocytes.” for “cells/well).”
as §2, §3

epidermal keratinocytes = assay: Intracellular calcium ion concentration in epidermal keratinocytes after adding pain-producing substances; settings: lactic acid present (mM range), two seconds after addition of the solution; FIG. 4
Method: as §1, with “solution.” for “solution. On the day before measurement of calcium ions was carried out, the thus-cultured epidermal keratinocytes were inoculated into a 96-well plate (2×10^5 cells/well).”
as §2, §3
Fmin: Fluorescence intensity of Fluo3-AM when EDTA is added and Ca^2+ is blocked (minimum fluorescence intensity)
Fmax: Fluorescence intensity of Fluo3-AM in the presence of excess Ca^2+ (breakage of cell membranes by a surfactant) (maximum fluorescence intensity) […]

Molecule: Nc1ncnc2c1ncn2[C@@H]1O[C@H](COP(=O)(O)OP(=O)(O)OP(=O)(O)O)[C@@H](O)[C@H]1O [ATP, adenosine 5′-triphosphate]
concentration of intracellular calcium ions in the keratinocytes (P2X receptor): significantly increased

Molecule: CC(O)C(=O)O (stereo not drawn) [lactic acid]
concentration of intracellular calcium ions in the epidermal keratinocytes (epidermal keratinocytes): increased

Molecule: 2′,3′-o-(2,4,6-trinitrophenyl)adenosine 5′-triphosphate [TNP-ATP]
increase in the concentration of intracellular calcium ions caused by αβ-me ATP (P2X receptor; keratinocytes preliminarily treated with TNP-ATP (100 nM) for 10 minutes, then mixture of TNP-ATP and αβ-me ATP added): suppressed

The next lines start with the values.

increase in the concentration of intracellular calcium ions caused by capsaicin (VR1 receptor; keratinocytes preliminarily treated with capsazepine for 10 minutes, then mixture of capsaicin and capsazepine added, FIG. 1B): suppressed
Molecule: Oc1cc2c(cc1O)CN(C(=S)NCCc1ccc(Cl)cc1)CCC2 [capsazepine]

concentration of intracellular calcium ions in the keratinocytes (P2X receptor): significantly increased
Molecule: Nc1ncnc2c1ncn2[C@@H]1O[C@H](COP(=O)(O)CP(=O)(O)OP(=O)(O)O)[C@@H](O)[C@H]1O [αβ-me ATP, αβ-methelene ATP]

concentration of intracellular calcium ions in the keratinocytes (VR1 receptor; capsaicin solution (final concentration 100 nM to 10 μM) added to epidermal keratinocytes, FIG. 1A): significantly increased
Molecule: COc1cc(CNC(=O)CCCC/C=C/C(C)C)ccc1O [capsaicin]
